The IC50 is the midpoint of a concentration-inhibition curve.

Bounds are passed on as bounds.

For six compounds, IC50 results are on record in ChEMBL document CHEMBL3879908, “Pyrrolidinone carboxamide derivatives” (2014).

The target in this assay is T1, Chemerin-like receptor 1 (Homo sapiens, UniProt Q99788).
T1 sequence (Q99788 whole entry): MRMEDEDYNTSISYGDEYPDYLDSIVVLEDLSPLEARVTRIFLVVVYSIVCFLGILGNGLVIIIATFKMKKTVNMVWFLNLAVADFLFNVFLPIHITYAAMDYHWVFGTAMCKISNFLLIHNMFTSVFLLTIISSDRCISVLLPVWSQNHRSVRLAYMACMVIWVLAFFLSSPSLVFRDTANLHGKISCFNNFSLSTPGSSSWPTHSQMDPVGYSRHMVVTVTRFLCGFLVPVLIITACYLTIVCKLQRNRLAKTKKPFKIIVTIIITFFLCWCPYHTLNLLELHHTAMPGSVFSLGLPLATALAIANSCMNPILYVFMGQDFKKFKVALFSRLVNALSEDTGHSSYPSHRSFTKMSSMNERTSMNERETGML
Nature of the assay: Displacement of [125I]-chemerin from ChemR23 (unknown origin) transfected in mouse BaF3 cells after 3 hrs by scintillation counting method. Type of assay: cell-based.
On to `Cc1cccc(C)c1N1C[C@](C(=O)Nc2cc(C(F)(F)F)cc(C(F)(F)F)c2)(C2CCOCC2)[C@H](C)C1=O`, for which the concentration for half-maximal inhibition (IC50) was not above 30 nM. `Cc1cccc(C)c1N1CC(C(=O)Nc2cc(C(F)(F)F)cc(C(F)(F)F)c2)(N2CCOCC2)CC1=O` (stereo unspecified) displayed a half-maximal inhibitory concentration (IC50) not above 30 nM.

On to `CCN(CC1CC1)C[C@@]1(C(=O)Nc2cc(C(F)(F)F)cc(C(F)(F)F)c2)CN(c2c(C)cccc2C)C(=O)[C@H]1C`, for which the half-maximal inhibitory concentration (IC50) was not above 30 nM.

In the case of `Cc1ccccc1N1CC(C(=O)Nc2cc(C(F)(F)F)cc(C(F)(F)F)c2)CC1=O` (stereo unspecified), the IC50 lay within 30 to 300 nM.

In the case of `CC[C@@]1(C(=O)Nc2cc(OC)cc(C(F)(F)F)c2)CN(c2c(C)cccc2C)C(=O)[C@H]1C`, the 50% inhibitory concentration (IC50) lay in the range of 30 to 300 nM. `Cc1cccc(C)c1N1C[C@@](CN(C)CC(F)F)(C(=O)Nc2cc(C(F)(F)F)cc(C(F)(F)F)c2)[C@H](C)C1=O` had an IC50 not above 30 nM.
